# In patent publication US20200261391A1, “METHODS OF REDUCING THE RISK OF A CARDIOVASCULAR EVENT IN A STATIN-TREATED SUBJECT BY INCREASING SERUM AND PLASMA EPA AND DPA LEVELS” (Amarin Pharmaceuticals Ireland Limited, priority 2019, published 2020):
# Test system: TG, non-HDL-C, LDL-C, HDL-C, apo B, hsCRP
# Experiment: REDUCE-IT trial: fasting lipid, lipoprotein and inflammatory marker data over time
# Type: in vivo, human
# Protocol: Fasting Lipid Profile: The fasting lipid panel included: TG, TC, LDL-C, HDL-C, non-HDL-C, and VLDL-C. At all visits, LDL-C was calculated using the Friedewald equation. At Visit 1 and Visit 1.1 direct LDL-C were used if at the same visit TG>400 mg/dL (4.52 mmol/L). These LDL-C values were used for the evaluation of the LDL-C inclusion criterion (LDL-C qualifying measurements for randomization) and for the assessment of changes in the statin therapy when LDL-C was not at goal. […] In addition, irrespective of the TG levels, at Visit 2 (0 Months of Follow-up, baseline) and at Visit 4 (12 Months of Follow-up), LDL-C were measured by preparative ultracentrifugation. These preparative ultracentrifugation LDL-C measurements were used in the statistical analysis including the calculation of the percent change from baseline (1 year versus baseline). Hopkins LDL-C was calculated for each visit.
# Biomarkers Assays: The biomarker assays included: hsCRP, Apo B and hsTnT.
# The fasting lipid panel was tested at Screening (Visit 1 or Visit 1.1), Randomization visit (Visit 2; Day 0), Visit 3 (Day 120; ˜4 Months) and all other follow-up visits including the last visit. For change from baseline to 1 year preparative ultracentrifugation measurements for LDL-C were analyzed, unless this value was missing. If the LDL-C preparative ultracentrifugation values were missing, then another LDL-C value was used, with prioritization of values obtained from LDL-C Direct measurements, followed by LDL-C derived by the Friedewald calculation (only for subjects with TG<400 mg/dL), and finally LDL-C derived using the calculation published by Hopkins University investigators (Martin S S, Blaha M J, Elshazly M B, et al. Comparison of a novel method vs the Friedewald equation for estimating low-density lipoprotein cholesterol levels from the standard lipid profile. JAMA. 2013; 310:2061-8.). In addition, change from baseline to day 120 in LDL-C utilizing Friedewald's and Hopkins methods was analyzed, using the arithmetic mean of LDL-C obtained at Visit 2 (Day 0) and the preceding Visit 1 (or Visit 1.1). If one of these values was missing, the single available LDL-C value was used. LDL-C according to Hopkins was calculated at each visit.
# The randomization visit was considered Baseline. If a baseline value was not available from the randomization visit, then the latest screening value was used. For measurements of lipids, lipoproteins and inflammatory markers, the change and the percent change were summarized at each visit. Since these biomarkers are typically not normally distributed, the Wilcoxon rank-sum test was used for treatment comparisons of the percent change from baseline, and medians and quartiles were provided for each treatment group. The medians of the differences between the treatment groups and 95% CIs were estimated with the Hodges-Lehmann method. In addition, shift-tables were generated as appropriate.
compound,measurement,setting,value
"CC/C=C\C/C=C\C/C=C\C/C=C\C/C=C\CCCC(=O)OCC [icosapent ethyl, eicosapentaenoic acid ethyl ester]",Apo B Median Observed Value,Year 2,80.0 mg/dL
same,HDL-C Median % Change from Baseline,Year 2,0.0%
same,HDL-C Median Absolute Change from Baseline,Year 2,0.0 mg/dL
same,HDL-C Median Observed Value,Year 2,40.0 mg/dL
same,LDL-C Hopkins Median % Change from Baseline,Year 2,−0.2%
same,LDL-C Hopkins Median Absolute Change from Baseline,Year 2,-0.1 mg/dL
same,LDL-C Hopkins Median Observed Value,Year 2,85.5 mg/dL
same,Log hsCRP Median % Change from Baseline,Year 2,−21.8%
same,Log hsCRP Median Absolute Change from Baseline,Year 2,−0.1 mg/L
same,Log hsCRP Median Observed Value,Year 2,0.6 mg/L
same,Non-HDL-C Median % Change from Baseline,Year 2,−3.1%
same,Non-HDL-C Median Absolute Change from Baseline,Year 2,-3.5 mg/dL
same,Non-HDL-C Median Observed Value,Year 2,113.0 mg/dL
same,Triglycerides Median % Change from Baseline,Year 2,−18.9%
same,Triglycerides Median Absolute Change from Baseline,Year 2,-38.5 mg/dL
same,Triglycerides Median Observed Value,Year 2,173.0 mg/dL
same,hsCRP Median % Change from Baseline,Year 2,−13.9%
same,hsCRP Median Absolute Change from Baseline,Year 2,-0.2 mg/L
same,hsCRP Median Observed Value,Year 2,1.8 mg/L
same,Apo B Between Group Difference Median % Change from Baseline,"Year 2, vs placebo",−9.7%
same,Apo B Between Group Difference Median Absolute Change from Baseline,"Year 2, vs placebo",-8.0 mg/dL
same,HDL-C Between Group Difference Median % Change from Baseline,"Year 2, vs placebo",−4.6%
same,HDL-C Between Group Difference Median Absolute Change from Baseline,"Year 2, vs placebo",-2.0 mg/dL
same,LDL-C Hopkins Between Group Difference Median % Change from Baseline,"Year 2, vs placebo",−11.1%
same,LDL-C Hopkins Between Group Difference Median Absolute Change from Baseline,"Year 2, vs placebo",-9.4 mg/dL
same,Log hsCRP Between Group Difference Median % Change from Baseline,"Year 2, vs placebo",−22.5%
same,Log hsCRP Between Group Difference Median Absolute Change from Baseline,"Year 2, vs placebo",−0.4 mg/L
same,Non-HDL-C Between Group Difference Median % Change from Baseline,"Year 2, vs placebo",−12.5%
same,Non-HDL-C Between Group Difference Median Absolute Change from Baseline,"Year 2, vs placebo",-14.5 mg/dL
same,Triglycerides Between Group Difference Median % Change from Baseline,"Year 2, vs placebo",−19.7%
same,Triglycerides Between Group Difference Median Absolute Change from Baseline,"Year 2, vs placebo",-43.8 mg/dL
same,hsCRP Between Group Difference Median % Change from Baseline,"Year 2, vs placebo",−39.9%
same,hsCRP Between Group Difference Median Absolute Change from Baseline,"Year 2, vs placebo",-0.9 mg/L
same,HDL-C Median % Change from Baseline,Year 3,0.0%
same,HDL-C Median Absolute Change from Baseline,Year 3,0.0 mg/dL
same,HDL-C Median Observed Value,Year 3,40.0 mg/dL
same,LDL-C Hopkins Median % Change from Baseline,Year 3,−1.2%
same,LDL-C Hopkins Median Absolute Change from Baseline,Year 3,-1.0 mg/dL
same,LDL-C Hopkins Median Observed Value,Year 3,84.6 mg/dL
same,Non-HDL-C Median % Change from Baseline,Year 3,−4.2%
same,Non-HDL-C Median Absolute Change from Baseline,Year 3,-4.8 mg/dL
same,Non-HDL-C Median Observed Value,Year 3,112.0 mg/dL
same,Triglycerides Median % Change from Baseline,Year 3,−21.7%
same,Triglycerides Median Absolute Change from Baseline,Year 3,-44.0 mg/dL
same,Triglycerides Median Observed Value,Year 3,167.0 mg/dL
same,HDL-C Between Group Difference Median % Change from Baseline,"Year 3, vs placebo",−3.8%
same,HDL-C Between Group Difference Median Absolute Change from Baseline,"Year 3, vs placebo",-1.5 mg/dL
same,LDL-C Hopkins Between Group Difference Median % Change from Baseline,"Year 3, vs placebo",−10.4%
same,LDL-C Hopkins Between Group Difference Median Absolute Change from Baseline,"Year 3, vs placebo",-8.7 mg/dL
same,Non-HDL-C Between Group Difference Median % Change from Baseline,"Year 3, vs placebo",−12.4%
same,Non-HDL-C Between Group Difference Median Absolute Change from Baseline,"Year 3, vs placebo",-14.5 mg/dL
same,Triglycerides Between Group Difference Median % Change from Baseline,"Year 3, vs placebo",−20.3%
same,Triglycerides Between Group Difference Median Absolute Change from Baseline,"Year 3, vs placebo",-45.5 mg/dL
same,HDL-C Median % Change from Baseline,Year 4,1.0%
same,HDL-C Median Absolute Change from Baseline,Year 4,0.5 mg/dL
same,HDL-C Median Observed Value,Year 4,40.5 mg/dL
same,LDL-C Hopkins Median % Change from Baseline,Year 4,−0.6%
same,LDL-C Hopkins Median Absolute Change from Baseline,Year 4,-0.5 mg/dL
same,LDL-C Hopkins Median Observed Value,Year 4,83.6 mg/dL
same,Non-HDL-C Median % Change from Baseline,Year 4,−4.2%
same,Non-HDL-C Median Absolute Change from Baseline,Year 4,-5.0 mg/dL
same,Non-HDL-C Median Observed Value,Year 4,110.5 mg/dL
same,Triglycerides Median % Change from Baseline,Year 4,−21.7%
same,Triglycerides Median Absolute Change from Baseline,Year 4,-42.5 mg/dL
same,Triglycerides Median Observed Value,Year 4,163.0 mg/dL
same,HDL-C Between Group Difference Median % Change from Baseline,"Year 4, vs placebo",−3.9%
same,HDL-C Between Group Difference Median Absolute Change from Baseline,"Year 4, vs placebo",-1.5 mg/dL
same,LDL-C Hopkins Between Group Difference Median % Change from Baseline,"Year 4, vs placebo",−10.6%
same,LDL-C Hopkins Between Group Difference Median Absolute Change from Baseline,"Year 4, vs placebo",-8.9 mg/dL
same,Non-HDL-C Between Group Difference Median % Change from Baseline,"Year 4, vs placebo",−12.0%
same,Non-HDL-C Between Group Difference Median Absolute Change from Baseline,"Year 4, vs placebo",-14.0 mg/dL
same,Triglycerides Between Group Difference Median % Change from Baseline,"Year 4, vs placebo",−17.4%
same,Triglycerides Between Group Difference Median Absolute Change from Baseline,"Year 4, vs placebo",-38.0 mg/dL
same,HDL-C Median % Change from Baseline,Year 5,0.0%
same,HDL-C Median Absolute Change from Baseline,Year 5,0.0 mg/dL
same,HDL-C Median Observed Value,Year 5,41.0 mg/dL
same,LDL-C Hopkins Median % Change from Baseline,Year 5,−0.7%
same,LDL-C Hopkins Median Absolute Change from Baseline,Year 5,-0.8 mg/dL
same,LDL-C Hopkins Median Observed Value,Year 5,82.2 mg/dL
same,Non-HDL-C Median % Change from Baseline,Year 5,−4.4%
same,Non-HDL-C Median Absolute Change from Baseline,Year 5,-5.0 mg/dL
same,Non-HDL-C Median Observed Value,Year 5,109.0 mg/dL
same,Triglycerides Median % Change from Baseline,Year 5,−20.0%
same,Triglycerides Median Absolute Change from Baseline,Year 5,-38.0 mg/dL
same,Triglycerides Median Observed Value,Year 5,158.0 mg/dL
same,HDL-C Between Group Difference Median % Change from Baseline,"Year 5, vs placebo",−3.0%
same,HDL-C Between Group Difference Median Absolute Change from Baseline,"Year 5, vs placebo",-1.5 mg/dL
same,LDL-C Hopkins Between Group Difference Median % Change from Baseline,"Year 5, vs placebo",−8.0%
same,LDL-C Hopkins Between Group Difference Median Absolute Change from Baseline,"Year 5, vs placebo",-6.6 mg/dL
same,Non-HDL-C Between Group Difference Median % Change from Baseline,"Year 5, vs placebo",−9.9%
same,Non-HDL-C Between Group Difference Median Absolute Change from Baseline,"Year 5, vs placebo",-11.0 mg/dL
same,Triglycerides Between Group Difference Median % Change from Baseline,"Year 5, vs placebo",−16.7%
same,Triglycerides Between Group Difference Median Absolute Change from Baseline,"Year 5, vs placebo",-33.5 mg/dL
same,reduction in hsCRP,in vivo,40%
